Laboratory results from article PMC6934184, “Selective DNA-PKcs inhibition extends the therapeutic index of localized radiotherapy and chemotherapy” (The Journal of Clinical Investigation, 2019).

Assays:
lung = experiment: radiation-induced lung fibrosis, Masson's trichrome, modified Ashcroft score; type: in vivo, C57BL/6 mice; details: 30 mg/kg oral 30 min before and 5 h after each of 4 × 5 Gy; 24 weeks
Protocol: Whole-thorax irradiation (5 Gy) was administered to female C57BL/6 mice (6–8 weeks old) on days 1, 4, 7, and 10 with vehicle or NU5455 treatment. Whole lung sections were stained with Masson’s trichrome to visualize collagen deposition and scored using the modified Ashcroft scale proposed by Hübner et al. ([55]). Further details are provided in Supplemental Methods. […]
combined with 10 Gy thorax irradiation ( n = 6 - 7/group). For whole-thorax irradiation, anaesthetized mice were placed in the supine position in a customized rig. The whole thorax was exposed to X-ray radiation generated by the Gulmay Medical RS320 irradiation system (2.034 Gy/minute). The rest of the body was protected by lead shields. […]
Tumor growth in the remaining mice was monitored by bioluminescent imaging on days 0, 4, 8 and 15 post-treatment. […] Data were analyzed using LivingImage software (PerkinElmer). […]
Tissues were fixed in 4% paraformaldehyde (PFA) and paraffin -embedded. […] One tissue section from each of 3 mice per group was examined, and the whole section (excluding necrotic areas) analyzed using ImageScope analysis software (Aperio Technologies). γH2AX and 53BP1 foci were manually counted in 200 nuclei from each tumor sample. The percentage of γH2AX and 53BP1 positive nuclei in lung epithelial cells was quantified manually in normal lung samples across 5 randomly-chosen fields of view per […]

[1] = pharmacokinetic analysis in Calu-6 tumor–bearing mice; type: in vivo, mouse; details: 30-mg/kg oral dose
Protocol: by determining the absorbance at 570 nm of SRB stain dissolved in Tris base (10 mM, pH 10.5) using a spectrophotometer (BMG Labtech).
In vivo pharmacokinetic analyses
All animal experiments were performed in accordance with the Animals (Scientific Procedures) 1986 Act. 8-9 week old mice were purchased from Charles River Laboratories and housed under specific pathogen-free conditions under 12 hour light/dark cycles.
Female CD-1, CD-1 nude, BALB/c nude and C57BL/6 mice were treated with NU5455 (30 or 100 mg/kg prepared in 1% (v/v) acetic acid or NMP:Encapsin (30% aq):PEG4000 (1:6:3 v/v/v) dosed by oral gavage. Blood samples were collected into heparinized tubes at 15, 30, 60, 180 and 360 minutes post-gavage.
Blood samples were centrifuged at 6700 x g for 3 minutes, the plasma removed and stored at -20°C prior to analysis for drug by HPLC with fluorescence detection. Aliquots of plasma (50 µl) were vigorously vortexed with acetonitrile (450 µl) and the precipitate removed by centrifugation at 6700 x g for 5 minutes. […]
Samples (20 µl) were applied to a 10 x 0.46 cm Genesis C18 4 µm column (Grace Vydac) fitted with an in-line filter. […] Analytes were detected by fluorescence at 390 nm following excitation at 242 nm. Plasma concentrations were determined using linear standard curves (0.01 µM – 10 µM, R2 > 0.98) generated by extracting compounds from […]

For `CN(C(=O)CN1CCOCC1)c1ccc2sc3c(-c4cccc5c(=O)cc(N6CC7CCC(C6)O7)oc45)cccc3c2c1` [NU5455], the radiation-induced lung fibrosis (lung) was “did not exacerbate radiation-induced lung fibrosis” and the “period NU5455 concentrations in plasma, lung, tumor, or surrounding skin maintained at approximately 1 μM (0.6 μg/mL or μg/g tissue) or above” value [1] was 3 h.
